# From patent US6951881B2, “(1-substituted-indol-3-yl) alkylidenehydrazinecarboximidamide derivatives as 5-hydroxytryptamine-6 ligands” (Wyeth, priority 2002, dated 2005)
# Counter-ions that a name gives are not always drawn. Like-named read-outs stand apart in the source and are kept apart here.
# Target: T1, human cloned 5-HT6 receptors (Homo sapiens, UniProt P50406)
# T1 construct: expressed in transfected cells; host or cells: HeLa cells
# Type: binding
# Details: for % Inhibition / inhibition at 1 µM: displacement of [3H]-LSD; for Ki: [3H]-LSD 3.0 nM, Hela cell membranes, read-out: 5-HT6 Binding Ki
# Procedure: This operation is repeated.
# The reaction is allowed to proceed in the dark for 120 min at room temperature, at which time, the bound ligand-receptor complex is filtered off on a 96 well unifilter with a Packard Filtermate® 196 Harvester. The bound complex caught on the filter disk is allowed to air dry and the radioactivity is measured in a Packard TopCount® equipped with six photomultiplier detectors, after the addition of 40.0 μl Microscint®-20 scintillant to each shallow well. The unifilter plate is heat-sealed and counted in a PackardTopCount® with a tritium efficiency of 31.0%.
# Specific binding to the 5-HT6 receptor is defined as the total radioactivity bound less the amount bound in the presence of 10.0 μM unlabeled methiothepin. Binding in the presence of varying concentrations of test compound is expressed as a percentage of specific binding in the absence of test compound. The results are plotted as logit % bound versus log concentration of test compound. Nonlinear regression analysis of data points with a computer assisted program Prism® yields both the IC50 and the Ki values of test compounds with 95% confidence limits.
# The amount of displacement by the test compound is given in percent (%) inhibition and is derived from the following equation: [formula] where B0 is the amount of CPM bound in the presence of the testing agent. NSB represents the CPM bound in the presence of a saturating concentration of a displacer and TB represents the total amount of CPM bound at zero (0) concentration of test compound.
# Alternatively, a linear regression line of decline of data points is plotted, from which the IC50 value can be read off and the Ki value determined by solving the following equation: [formula] where L is the concentration of the radioactive ligand used and KD is the dissociation constant of the ligand for the receptor, both expressed in nM.
# T1 sequence (P50406 whole entry): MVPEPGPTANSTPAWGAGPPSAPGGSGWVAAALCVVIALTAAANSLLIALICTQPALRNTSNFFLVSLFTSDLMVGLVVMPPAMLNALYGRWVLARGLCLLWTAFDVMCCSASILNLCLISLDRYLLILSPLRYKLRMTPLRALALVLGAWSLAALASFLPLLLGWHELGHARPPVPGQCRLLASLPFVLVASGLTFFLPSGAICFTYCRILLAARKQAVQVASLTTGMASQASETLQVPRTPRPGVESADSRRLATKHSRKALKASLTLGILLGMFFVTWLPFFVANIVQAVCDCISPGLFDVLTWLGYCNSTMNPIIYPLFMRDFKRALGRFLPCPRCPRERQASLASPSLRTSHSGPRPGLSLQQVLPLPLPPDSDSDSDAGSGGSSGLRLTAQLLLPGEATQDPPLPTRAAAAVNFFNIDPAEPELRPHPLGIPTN
Ki [nM],inhibition at 1 µM (test compound dose 1000 nM) [%],Molecule,further results
–,–,"2-[3-(2-chloro-phenyl)-1-(1,2-diphenyl-1H-indol-3-yl)-allylidene]hydrazinecarboximidamide [Example 88]",% Inhibition (test compound dose 1000 nM): 37.5%
–,–,2-{[2-(3-thienyl)-1H-indol-3-yl]-ethylidene}hydrazinecarboximidamide [Example 139],% Inhibition (test compound dose 100 nM): 60.1%
1,–,"C/C(=N\NC(=N)N)c1c[nH]c2ccc(NS(=O)(=O)c3ccccc3)cc12 [Example 7, (Z)-2-{1-[5-[(Phenylsulfonyl)amino]-1H-indol-3yl]ethylidene}hydrazinecarboximidamide Hydrochloride]",–
2,–,"C/C(=N\NC(=N)N)c1cn(C)c2ccc(NS(=O)(=O)c3ccccc3)cc12 [Example 8, (Z)-2-{-1-[1-methyl-5-[(phenylsulfonyl)amino]-1H-indol-3-yl]ethylidene}hydrazinecarboximidamide Hydrochloride]",–
4,98.7,CC(=NNC(=N)N)c1cn(C)c2ccc(NS(=O)(=O)c3ccc(N)cc3)cc12 [Example 10],–
7,98.7,CC(=NNC(=N)N)c1cn(C)c2ccc(NS(=O)(=O)c3sc4ccc(Cl)cc4c3C)cc12 [Example 16],–
1,97.4,COc1ccc(S(=O)(=O)Nc2ccc3[nH]cc(C(C)=NNC(=N)N)c3c2)cc1 [Example 19],–
3,99,COc1ccc(S(=O)(=O)Nc2ccc3c(c2)c(C(C)=NNC(=N)N)cn3C)cc1 [Example 20],–
3,99.4,COc1ccc(S(=O)(=O)Nc2ccc3c(c2)c(C(C)=NNC(=N)N)cn3C)cc1OC [Example 23],–
1,99,CC(=NNC(=N)N)c1cn(C)c2ccc(NS(=O)(=O)c3ccccc3Br)cc12 [Example 25],–
4,98.4,CC(=NNC(=N)N)c1cn(C)c2ccc(NS(=O)(=O)c3ccc(Cl)cc3)cc12 [Example 29],–
–,96.4,"[H]/N=C(/N)NN=C(C)c1c[nH]c2ccc(NS(=O)(=O)c3ccc(-c4ccccc4)cc3)cc12 [Example 35, (Z)-2-[1-[5-[(4-biphenylsulfonyl)amino]-1H-indol-3-yl]ethylidene]hydrazinecarboximidamide]",–
–,82.1,"N=C(N)N/N=C/c1c(-c2ccccc2)[nH]c2ccccc12 [Example 42, 2-(2-Phenyl-1H-indol-3-ylmethylene)hydrazinecarboximidamide]",–
–,93.3,"C/C(=N\NC(=N)N)c1c(-c2ccccc2)[nH]c2ccccc12 [Example 43, 2-[1-(2-Phenyl-1H-indol-3-yl)ethylidene]hydrazine-carboximidamide]",–
18,–,"N=C(N)NN=Cc1c(-c2ccc(Cl)cc2)[nH]c2ccccc12 [Example 44, 2-[2-(4-chlorophenyl)-1H-indol-3-ylmethylene]hydrazinecarboximidamide]",–
–,68.5,"Clc1ccc(-c2[nH]c3ccccc3c2C=NNC2=NCCCN2)cc1 [Example 45, N-[2-(4-chlorophenyl)-1H-indol-3-ylmethylene]-N′-(1,4,5,6-tetrahydropyrimidin-2-yl)hydrazine]",–
10,96.5,"CN(N=Cc1c(-c2ccc(Cl)cc2)[nH]c2ccccc12)C1=NCCN1 [Example 46, N′-[2-(4-chlorophenyl)-1H-indol-3-ylmethylene]-N-(4,5-dihydro-1H-imidazol-2-yl)-N-methylhydrazine]",–
20.2,–,"Clc1ccc(-c2[nH]c3ccccc3c2C=NNC2=NCCN2)cc1 [Example 47, N-[2-(4-chlorophenyl)-1H-indol-3-ylmethylene]-N′-(4,5-dihydro-1H-imidazol-2-yl)hydrazine]",–
–,88.6,"N=C(N)NN=Cc1c(-c2ccc(F)c(Cl)c2)[nH]c2ccccc12 [Example 48, 2-[2-(3-chloro-4-fluoro-phenyl)-1H-indol-3-ylmethylene]hydrazinecarboximidamide]",–

Ki [nM],inhibition at 1 µM (test compound dose 1000 nM) [%],Molecule,further results
–,93.8,"CN(N=Cc1c(-c2ccc(F)c(Cl)c2)[nH]c2ccccc12)C1=NCCN1 [Example 49, N′-[2-(3-chloro-4-fluoro-phenyl)-1H-indol-3-ylmethylene]-N-(4,5-dihydro-1H-imidazol-2-yl)-N-methylhydrazine]",–
–,96.2,"CN(N=Cc1c(-c2ccccc2)[nH]c2ccccc12)C1=NCCN1 [Example 50, N-(4,5-dihydro-1H-imidazol-2-yl)-N′-(2-phenyl-1H-indol-3-ylmethylene)-N-methylhydrazine]",–
109,–,"N=C(N)NN=Cc1c(-c2ccc3ccccc3c2)[nH]c2ccccc12 [Example 51, 2-{[2-(naphthalen-2-yl)-1H-indol-3-yl]methylene}hydrazinecarboximidamide]",–
29,–,"N=C(N)NN=Cc1c(-c2ccc(F)cc2)[nH]c2ccccc12 [Example 52, 2-[2-(4-fluorophenyl)-1H-indol-3-ylmethylene]hydrazinecarboximidamide]",–
–,33.7,"N=C(N)NN=C(Cc1ccc(Cl)cc1)c1c(-c2ccc(Cl)cc2)[nH]c2ccccc12 [Example 53, 2-{1-[2-(4-chloro-phenyl)-1H-indol-3-yl]-2-(4-chloro-phenyl)-ethylidene}hydrazinecarboximidamide]",–
–,27,"N=C(N)NN=C(c1c(-c2ccccc2)[nH]c2ccccc12)C1CCCCC1 [Example 54, 2-[cyclohexyl-(2-phenyl-1H-indol-3-yl)-methylene]hydrazinecarboximidamide]",–
–,28.5,"N=C(N)NN=C(c1c(-c2ccc(Cl)cc2)[nH]c2ccccc12)C1CCCCC1 [Example 55, 2-{[2-(4-chloro-phenyl)-1H-indol-3-yl]-cyclohexyl-methylene}hydrazinecarboximidamide]",–
–,33.9,"N=C(N)NN=C(c1c(-c2ccc(F)c(Cl)c2)[nH]c2ccccc12)C1CCCCC1 [Example 56, 2-{[2-(3-chloro-4-fluoro-phenyl)-1H-indol-3-yl]-cyclohexyl-methylene}hydrazinecarboximidamide]",–
–,–,"CC(C)C(=NNC(=N)N)c1c(-c2ccc(Cl)cc2)[nH]c2ccccc12 [Example 57, 2-{[2-(4-chloro-phenyl)-1H-indol-3-yl]-2-methyl-propylidene}hydrazinecarboximidamide]",% Inhibition (test compound dose 1000 nM): 74.6%
–,24.4,"N=C(N)NN=C(Cc1ccccc1)c1c(-c2ccccc2)[nH]c2ccccc12 [Example 59, 2-[2-phenyl-1-(2-phenyl-1H-indol-3-yl)-ethylidene]hydrazinecarboximidamide]",–
–,49.5,"N=C(N)NN=C(Cc1ccccc1)c1c(-c2ccc(Cl)cc2)[nH]c2ccccc12 [Example 60, 2-{1-[2-(4-chloro-phenyl)-1H-indol-3-yl]-2-phenyl-ethylidene}hydrazinecarboximidamide]",–
–,83.9,"N=C(N)NN=C(Cc1ccccc1)c1c(-c2ccc(F)c(Cl)c2)[nH]c2ccccc12 [Example 61, 2-{1-[2-(3-chloro-4-fluoro-phenyl)-1H-indol-3-yl]-2-phenyl-ethylidene}hydrazinecarboximidamide]",–
–,78.2,"CC(C)CC(=NNC(=N)N)c1c(-c2ccc(Cl)cc2)[nH]c2ccccc12 [Example 62, 2-{1-[2-(4-chloro-phenyl)-1H-indol-3-yl]-3-methyl-butylidene}hydrazinecarboximidamide]",–
–,31.7,"N=C(N)NN=C(C=Cc1ccccc1Cl)c1c(-c2ccc(Cl)cc2)[nH]c2ccccc12 [Example 63, 2-{3-(2-chloro-phenyl)-1-[2-(4-chloro-phenyl)-1H-indol-3-yl]-allylidene}hydrazinecarboximidamide]",–
17,98.5,"CC(=NNC(=N)N)c1c(-c2ccc(Cl)cc2)[nH]c2ccccc12 [Example 64, 2-{1-[2-(4-chloro-phenyl)-1H-indol-3-yl]-ethylidene}hydrazinecarboximidamide]",–
–,87.2,"CC(=NNC(=N)N)c1c(-c2ccc(F)c(Cl)c2)[nH]c2ccccc12 [Example 65, 2-{1-[2-(3-chloro-4-fluoro-phenyl)-1H-indol-3-yl]-ethylidene}hydrazinecarboximidamide]",–
–,–,"CN(N=C(c1ccc(Cl)cc1)c1c(-c2ccccc2)[nH]c2ccccc12)C1=NCCN1 [Example 66, N′-[(4-chlorophenyl)-(2-phenyl-1H-indol-3-yl)-methylene]-N-(4,5,-dihydro-1H-imidazol-2-yl)-N-methylhydrazine]",% Inhibition (test compound dose 1000 nM): 18.1%
–,–,"CN(N=C(c1ccc(Cl)cc1)c1c(-c2ccc(Cl)cc2)[nH]c2ccccc12)C1=NCCN1 [Example 67, N′-{(4-chlorophenyl)-[2-(4-chlorophenyl)-1H-indol-3-yl]-methylene}-N-(4,5,-dihydro-1H-imidazol-2-yl)-N-methylhydrazine]",% Inhibition (test compound dose 1000 nM): 35.2%
–,24.8,"CC(C)=CC(=NN(C)C1=NCCN1)c1c(-c2ccccc2)[nH]c2ccccc12 [Example 68, N-(4,5-dihydro-1H-imidazol-2-yl)-N-methyl-N′-[3-methyl-1-(2-phenyl-1H-indol-3-yl)-but-2-enylidene]hydrazine]",–
